In patent US4094964A, “Clonidine assay” (Hoffmann-La Roche Inc., priority 1977, dated 1978):
pIC50: −log10 of the molar value.

system: antibody in the antiserum of rabbit immunized by the clonidine bovine serum albumin immunogen; experiment: Radioimmunoassay specificity: competition with clonidine-14C for binding to the antiserum; conditions: 100 ng to 500 pg of competitor, antiserum 1:50, about 18 hours at 4° C., pH 7.4
Experimental: The antiserum of Example 3 as used for the radioimmunoassay was diluted with normal rabbit serum which was diluted with phosphate-buffered saline, pH 7.4, at 1:10-dilution. To determine the antibody titre of antiserum, 0.1 ml of various dilutions of the antiserum was incubated in an assay tube (10 × 75 mm) with 2 ng of clonidine ^14 C approximately 3,000 cpm at 4° C. for about 18 hours. The volume was adjusted to 0.5 ml with phosphate-buffered saline, pH 7.4, which is the optimal pH for the assay. The antibody bound clonidine was separated from free clonidine by the addition of saturated ammonium sulfate which was adjusted to pH 7.4 with ammonium hydroxide as described by Farr, J. Infect. Dis 103, 239 (1958). After 2 washings with 50% saturated ammonium sulfate, the precipitate was dissolved in 0.5 ml of water. The content of the tube was transferred to counting vial and the tube was then washed 4 times with 3 ml of Riafluor. The 12 ml washings were all collected in the vial. The radioactivity was then counted with a Beckman liquid scintillation counter. The dilution of the antiserum chosen for further studies was 1:50.
Appropriate volume of phosphate-buffered saline, pH 7.4 was added to all tubes containing 0.1 ml of the antiserum to make a final incubation volume of 0.5 ml. To the tubes were added 100 ul of clonidine-^14 C and various quantities ranging from 100 ng to 500 pg of clonidine, 2-(2,6-dichloro-4-hydroxyanilino)-2-imidazoline (4-hydroxyclonidine), 2-(2,6-dichloro-4-sulfonamidoanilino)-2-imidazoline (4-sulfonamidoclonidine),2-(2-chloro-3-methylanilino)-2-imidazoline, 2-(2-chloro-4-methylanilino)-2-imidazoline, 2-(2-chloro-6-methylanilino)-2-imidazoline, 2-anilino-2-imidazoline, 2-(2,6-dichloro-anilino)-2-methyl-2-imidazoline (2-methylclonidine), 2-(2,6-dichloroanilino)-1-methyl-2-imidazoline (1-methylclonidine), 1-acetamido-2-(2,6-dichloroanilino)-2-imidazoline (1-acetamidoclonidine), 2-(2,6-dichloroanilino)-2-pyrroline, 2-(2,6-dichloroanilino)-2-oxazoline, 2-(2,6-dichloroanilino)-2-benzimidazole, 2-(2,6-dichloroanilino)-1,3-dimethylquanidine, 2-(2,6-dichloroanilino)-1-methylguanidine, 2-(2,6-dichloroanilino)quanidine, aniline or 2-(2,6-dichlorobenzyl)-2-imidazoline. The tubes were then incubated for about 18 hours at 4° C. followed by precipitation with ammonium sulfate.
The specificity of the antibody in the antiserum of rabbit immunized by the clonidine bovine serum albumin immunogen was determined by incubating the antiserum with 2-(2,6-dichloro-4-hydroxyanilino)-2-imidazoline (4-hydroxyclonidine), 2-(2,6-dichloro-4-sulfonamidoanilino)-2-imidazoline (4-sulfonamidoclonidine), 2-(2-chloro-3-methylanilino)-2-imidazoline, 2-(2-chloro-4-methylanilino)-2-imidazoline, 2-(2-chloro-6-methylanilino)-2-imidazoline, 2-anilino-2-imidazoline, 2-(2,6-dichloroanilino)-2-methyl-2-imidazoline (2-methylclonidine), 2-(2,6-dichloroanilino)-1-methyl-2-imidazoline (1-methylclonidine), 1-acetamido-2-(2,6-dichloroanilino)-2-imidazoline (1-acetamidoclonidine), 2-(2,6-dichloroanilino)-2-pyrroline, 2-(2,6-dichloroanilino)-2-oxazoline, 2-(2,6-dichloroanilino)-2-benzimidazole, 2-(2,6-dichloroanilino)-1,3-dimethylguanidine, 2-(2,6-dichloroanilino)-1-methylguanidine, 2-(2,6-dichloroanilino)guanidine, aniline or 2-(2,6-dichlorobenzyl)-2-imidazoline in the presence of labelled clonidine.

Molecule | recognition by the antibody in the presence of labelled clonidine
Oc1cc(Cl)c(NC2=NCCN2)c(Cl)c1 [2-(2,6-dichloro-4-hydroxyanilino)-2-imidazoline] | recognized
Clc1cccc(Cl)c1NC1=NCCO1 [2-(2,6-dichloro-anilino)-2-oxazoline, 2-(2,6-dichloroanilino)-2-oxazoline] | failed to recognize
Cc1cccc(NC2=NCCN2)c1Cl [2-(2-chloro-3-methylanilino)-2-imidazoline] | recognized
Clc1cccc(Cl)c1CC1=NCCN1 [2-(2,6-dichlorobenzyl)-2-imidazoline] | failed to recognize
CC(=O)NN1CCN=C1Nc1c(Cl)cccc1Cl [1-acetamido-2-(2,6-dichloroanilino)-2-imidazoline] | recognized
Cc1cccc(Cl)c1NC1=NCCN1 [2-(2-chloro-6-methylanilino)-2-imidazoline] | recognized
NS(=O)(=O)c1cc(Cl)c(NC2=NCCN2)c(Cl)c1 [2-(2,6-dichloro-4-sulfonamidoanilino)-2-imidazoline] | recognized
c1ccc(NC2=NCCN2)cc1 [2-anilino-2-imidazoline] | failed to recognize
2-(2,6-dichloroanilino)-2-methyl-2-imidazoline | failed to recognize
Cc1ccc(NC2=NCCN2)c(Cl)c1 [2-(2-chloro-4-methylanilino)-2-imidazoline] | recognized
CN1CCN=C1Nc1c(Cl)cccc1Cl [2-(2,6-dichloroanilino)-1-methyl-2-imidazoline] | failed to recognize
2-(2,6-dichloroanilino)-1,3-dimethylguanidine | failed to recognize
2-(2,6-dichloroanilino)guanidine [2-(2,6-dichloro-anilino)guanidine] | failed to recognize
Nc1ccccc1 [aniline] | failed to recognize

same assay, conditions: antiserum 1:50, about 18 hours at 4° C., pH 7.4

Molecule | concentration required relative to that of clonidine (cross-reactivity)
Clc1cccc(Cl)c1NC1=CCCN1 [2-(2,6-dichloroanilino)-2-pyrroline] | about 40 times that of clonidine
2-(2,6-dichloroanilino)-1-methylguanidine | about 40 times that of clonidine

same assay, conditions: read-out: concentration producing a 50% inhibition of binding of clonidine-14C to the antibody; antiserum 1:50, about 18 hours at 4° C., pH 7.4, ammonium sulfate precipitation

Molecule | pIC50
Clc1cccc(Cl)c1N=C1NCCN1 [Clonidine] | 7.60
